Source: patent US9465288B2, “Sulfonium salt compound, method for producing the same, and photoacid generator” (DSP GOKYO FOOD & CHEMICAL CO., LTD., priority 2012, dated 2016)

Tests used:
[1] = Ultraviolet-visible absorption spectrum, molecular extinction coefficient at 365 nm; format: physicochemical; settings: 1×10^−4 mol/L acetonitrile solution; reference range 50 to 2000
Procedure: A 1×10^−4 mol/L acetonitrile solution of each test compound was prepared, and the molecular extinction coefficient at 365 nm in the ultraviolet-visible absorption spectrum was measured using an ultraviolet-visible spectrophotometer (UV-2400PC, manufactured by SHIMADZU CORPORATION). […] Considering that light would be transmitted to a deep portion of a thick film, the reference range of the molecular extinction coefficient at 365 nm (i-line) was set to 50 to 2000. The sulfonium compounds falling within this range were evaluated as having desirable properties.

[2] = Solubility: amount of PGMEA necessary for dissolving 100 mg of test compound; format: physicochemical; settings: for PGMEA (amount necessary for dissolving the test compound): 100 mg test compound, 20±5° C., 30 minutes with 30-second strong shaking every 5 minutes, 300 μL or less desirable
Procedure: The thus obtained sulfonium salt compounds were used as test compounds. PGMEA was added to 100 mg of each test compound, and the amount of PGMEA necessary for dissolving the test compound therein after the elapse of 30 minutes by repeating 30-second strong shaking at 20±5° C. every 5 minutes was measured. Here, “dissolving” means to reach the state where no insoluble matter can be observed by visual inspection, specifically, means that the resultant solution is clear, or a mixture in an arbitrary ratio becomes transparent. […] In Table 1 below, sulfonium salt compounds with an amount of PGMEA of 300 μL or less were evaluated as having desirable properties.

SMILES: CCCCOc1ccc2ccc(OCCCC)c([S+](CCCC)CCCC)c2c1.O=S(=O)([N-]S(=O)(=O)C(F)(F)C(F)(F)C(F)(F)C(F)(F)F)C(F)(F)C(F)(F)C(F)(F)C(F)(F)F [Ex. 1, 1-(2,7-di-n-butoxynaphthyl)di-n-butylsulfonium di(1,1,2,2,3,3,4,4,4-nonafluorobutanesulfone)imide]
- Molecular extinction coefficient (365 nm) [1]: 580
- PGMEA (amount necessary for dissolving the test compound) [2]: 100 µL

SMILES: CCCCOc1ccc2ccc(OCCCC)c([S+](C)C)c2c1.O=S(=O)([N-]S(=O)(=O)C(F)(F)C(F)(F)C(F)(F)C(F)(F)F)C(F)(F)C(F)(F)C(F)(F)C(F)(F)F [Ex. 2, 1-(2,7-di-n-butoxynaphthyl)dimethylsulfonium di(1,1,2,2,3,3,4,4,4-nonafluorobutanesulfone)imide]
- Molecular extinction coefficient (365 nm) [1]: 480
- PGMEA (amount necessary for dissolving the test compound) [2]: 100 µL

SMILES: CCCCOc1ccc2ccc(OCCCC)c([S+](CCCC)CCCC)c2c1.O=S1(=O)[N-]S(=O)(=O)C(F)(F)C(F)(F)C1(F)F [Ex. 4, 1-(2,7-di-n-butoxynaphthyl)di-n-butylsulfonium 1,1,2,2,3,3-hexafluorotrimethylene sulfone imide]
- Molecular extinction coefficient (365 nm) [1]: 700
- PGMEA (amount necessary for dissolving the test compound) [2]: 200 µL

SMILES: CCCCOc1ccc2ccc(OCCCC)c([S+](CCCC)CCCC)c2c1.F[P-](F)(F)(F)(F)F [C. Ex. 3, 1-(2,7-di-n-butoxynaphthyl)di-n-butylsulfonium hexafluorophosphate, reference compound]
- Molecular extinction coefficient (365 nm) [1]: 490
- PGMEA (amount necessary for dissolving the test compound) [2]: 1900 µL
- Solubility in PGMEA (in words) ([2]; PGMEA): exceptionally low solubility in PGMEA

SMILES: COc1ccc2ccc(OC)c([S+](c3ccccc3)c3ccccc3)c2c1.O=S1(=O)[N-]S(=O)(=O)C(F)(F)C(F)(F)C1(F)F [C. Ex. 2, 1-(2,7-dimethoxynaphthyl)diphenylsulfonium 1,1,2,2,3,3-hexafluorotrimethylene sulfone imide, reference compound]
- Molecular extinction coefficient (365 nm) [1]: 2010
- PGMEA (amount necessary for dissolving the test compound) [2]: 1400 µL

SMILES: CCCCCCCCOc1ccc2ccc(OCCCCCCCC)c([S+](C)C)c2c1.O=S(=O)([N-]S(=O)(=O)C(F)(F)F)C(F)(F)F [Ex. 11, 1-(2,7-di-n-octoxynaphthyl)dimethylsulfonium di(1,1,1-trifluoromethanesulfone)imide]
- Molecular extinction coefficient (365 nm) [1]: 440
- PGMEA (amount necessary for dissolving the test compound) [2]: 100 µL

SMILES: CCCCOc1ccc2c(OCCCC)ccc([S+](CCCC)CCCC)c2c1.O=S(=O)([N-]S(=O)(=O)C(F)(F)C(F)(F)C(F)(F)C(F)(F)F)C(F)(F)C(F)(F)C(F)(F)C(F)(F)F [Ex. 3, 1-(4,7-di-n-butoxynaphthyl)di-n-butylsulfonium di(1,1,2,2,3,3,4,4,4-nonafluorobutanesulfone)imide]
- Molecular extinction coefficient (365 nm) [1]: 810
- PGMEA (amount necessary for dissolving the test compound) [2]: 100 µL

SMILES: CCCCOc1ccc2ccc(OCCCC)c([S+](C(C)C)C(C)C)c2c1.O=S(=O)([N-]S(=O)(=O)C(F)(F)C(F)(F)C(F)(F)C(F)(F)F)C(F)(F)C(F)(F)C(F)(F)C(F)(F)F [Ex. 13, 1-(2,7-di-n-butoxynaphthyl)diisopropyl sulfonium di(1,1,2,2,3,3,4,4,4-nonafluorobutanesulfone)imide]
- Molecular extinction coefficient (365 nm) [1]: 1030
- PGMEA (amount necessary for dissolving the test compound) [2]: 100 µL

SMILES: CCCCOc1ccc([S+](CCCC)CCCC)c2c(OCCCC)cccc12.O=S(=O)([N-]S(=O)(=O)C(F)(F)F)C(F)(F)F [Ex. 7, 1-(4,8-di-n-butoxynaphthyl)di-n-butylsulfonium di(1,1,1-trifluoromethanesulfone)imide]
- Molecular extinction coefficient (365 nm) [1]: 570
- PGMEA (amount necessary for dissolving the test compound) [2]: 100 µL

SMILES: CCCCOc1ccc2ccc(OCCCC)c([S+](c3ccccc3)c3ccccc3)c2c1.O=S(=O)([N-]S(=O)(=O)C(F)(F)C(F)(F)C(F)(F)C(F)(F)F)C(F)(F)C(F)(F)C(F)(F)C(F)(F)F [C. Ex. 5, 1-(2,7-di-n-butoxynaphthyl)diphenylsulfonium di(1,1,2,2,3,3,4,4,4-nonafluorobutanesulfone)imide, reference compound]
- Molecular extinction coefficient (365 nm) [1]: 2930
- PGMEA (amount necessary for dissolving the test compound) [2]: 100 µL

SMILES: CCCCOc1ccc([S+](CCCC)CCCC)c2c(OCCCC)cccc12.O=S(=O)([N-]S(=O)(=O)C(F)(F)C(F)(F)C(F)(F)C(F)(F)F)C(F)(F)C(F)(F)C(F)(F)C(F)(F)F [Ex. 8, 1-(4,8-di-n-butoxynaphthyl)di-n-butylsulfonium di(1,1,2,2,3,3,4,4,4-nonafluorobutanesulfone)imide]
- Molecular extinction coefficient (365 nm) [1]: 620
- PGMEA (amount necessary for dissolving the test compound) [2]: 100 µL

SMILES: CCCCOc1ccc2ccc(OCCCC)c([S+](CCCC)CCCC)c2c1.O=S(=O)([O-])C(F)(F)C(F)(F)C(F)(F)C(F)(F)F [Ex. 6, 1-(2,7-di-n-butoxynaphthyl)di-n-butylsulfonium 1,1,2,2,3,3,4,4,4-nonafluorobutanesulfonate]
- Molecular extinction coefficient (365 nm) [1]: 690
- PGMEA (amount necessary for dissolving the test compound) [2]: 100 µL

SMILES: CCCCOc1ccc2c(OCCCC)ccc([S+](CCCC)CCCC)c2c1.O=S(=O)([N-]S(=O)(=O)C(F)(F)F)C(F)(F)F [Ex. 10, 1-(4,7-di-n-butoxynaphthyl)di-n-butylsulfonium di(1,1,1-trifluoromethanesulfone)imide]
- Molecular extinction coefficient (365 nm) [1]: 940
- PGMEA (amount necessary for dissolving the test compound) [2]: 100 µL

SMILES: O=S(=O)([N-]S(=O)(=O)C(F)(F)C(F)(F)C(F)(F)C(F)(F)F)C(F)(F)C(F)(F)C(F)(F)C(F)(F)F.c1ccc([S+](c2ccccc2)c2ccccc2)cc1 [C. Ex. 4, triphenylsulfonium di(1,1,2,2,3,3,4,4,4-nonafluorobutanesulfone)imide, reference compound]
- Molecular extinction coefficient (365 nm) [1]: 0
- PGMEA (amount necessary for dissolving the test compound) [2]: 100 µL

SMILES: CCCCOc1ccc2ccc(OCCCC)c([S+](C(C)C)C(C)C)c2c1.O=S(=O)([N-]S(=O)(=O)C(F)(F)F)C(F)(F)F [Ex. 12, 1-(2,7-di-n-butoxynaphthyl)diisopropyl sulfonium di(1,1,1-trifluoromethanesulfone)imide]
- Molecular extinction coefficient (365 nm) [1]: 880
- PGMEA (amount necessary for dissolving the test compound) [2]: 100 µL

SMILES: O=S1(=O)[N-]S(=O)(=O)C(F)(F)C(F)(F)C1(F)F.c1ccc([S+](c2ccccc2)c2ccccc2)cc1 [C. Ex. 1, triphenylsulfonium 1,1,2,2,3,3-hexafluorotrimethylene imide, reference compound]
- Molecular extinction coefficient (365 nm) [1]: 0
- PGMEA (amount necessary for dissolving the test compound) [2]: 300 µL

SMILES: CCCCOc1cc(OCCCC)c2ccccc2c1[S+](CCCC)CCCC.O=S(=O)([N-]S(=O)(=O)C(F)(F)C(F)(F)C(F)(F)C(F)(F)F)C(F)(F)C(F)(F)C(F)(F)C(F)(F)F [Ex. 5, 1-(2,4-di-n-butoxynaphthyl)di-n-butylsulfonium di(1,1,2,2,3,3,4,4,4-nonafluorobutanesulfone)imide]
- Molecular extinction coefficient (365 nm) [1]: 100
- PGMEA (amount necessary for dissolving the test compound) [2]: 100 µL

SMILES: CCCCOc1ccc2ccc(OCCCC)c([S+](CCCC)CCCC)c2c1.O=S(=O)([N-]S(=O)(=O)C(F)(F)F)C(F)(F)F [Ex. 9, 1-(2,7-di-n-butoxynaphthyl)di-n-butylsulfonium di(1,1,1-trifluoromethanesulfone)imide]
- Molecular extinction coefficient (365 nm) [1]: 560
- PGMEA (amount necessary for dissolving the test compound) [2]: 200 µL
